Data from publication PMC4664883, “Selective targeting of nuclear receptor FXR by avermectin analogues with therapeutic effects on nonalcoholic fatty liver disease” (Scientific Reports, 2015).

Legend:
FXR A291W mutation = experiment: Reporter assay with mutated FXR; format: cell-based; conditions: 1 μM, Fig. 8e
FXR N283L mutation = experiment: Reporter assay with mutated FXR; format: cell-based; conditions: 1 μM, Fig. 8e
Text: R331M mutation was supposed to strengthen the hydrophobic interactions by displacing the corresponding residue of polar arginine to a hydrophobic methionine (Fig. 8b). Accordingly, this mutation increased the ability to be activated by avermectin ligands (Fig. 8e). For H447F mutation, the corresponding residue of histidine with a side chain of imidazole group was replaced by the nonpolar phenylalanine with a side chain of benzene ring (Fig. 8c). […] N283L mutation disrupts a key hydrogen bond between FXR and avermectin compounds (Fig. 8d).

KK-Ay mice = experiment: High-fat diet fed KK-Ay mice treated 14 days (liver histology, metabolic parameters, GTT, ITT); format: in vivo; conditions: KK-Ay mice, high-fat diet, i.p. once daily 14 days; avermectin analogues 1.3 mg/kg, GW4064 30 mg/kg
Method: To further confirm the lipid accumulation, we performed oil red O staining of the frozen liver sections (Fig. 2c).
10 weeks age KK-Ay mice and C57BL/6J, homozygous FXR deficient (FXR^–/–) mice were maintained under environmentally controlled conditions with free access to standard chow diet and water as described previously. Animal experiments were conducted in the barrier facility of the Laboratory Animal Center, Xiamen University, approved by the Institutional Animal Use and Care Committee of Xiamen University, China, and the methods were carried out in accordance with the approved guidelines. Mice were fed with high fat diet containing 60% fat, 20% protein and 20% carbohydrate (Research Diets, D12492, New Brunswick, USA), and the food intake were measured every second day. […] After 6 h fasting, mice were weighed and sacrificed. Livers were weighed and taken photos, and part of each liver was fixed in 4% paraformaldehyde. Liver histology characterization was analyzed by haematoxylin and eosin (H&E) staining with paraffin-embedded sections by standard procedures. Other tissues were collected and frozen in liquid nitrogen for use, and serums were collected to measure metabolite parameters.
Fresh liver tissues were embedded in optimum cutting temperature compound (OCT) and cryosectioned. The sections were fixed in 4% paraformaldehyde in PBS, and were stained with 0.3% oil red O according to standard procedures.
Mice treated with compounds for 10 days were fasted for 6 h with free access to water. For the glucose tolerance test (GTT), 1 g/kg of glucose was i.p. injected and blood glucose was measured with the Accu-Check Performa (Roche Applied Science, Mannheim, Germany) at 0, 30, 60, 90, 120,150 and 180 min. For the insulin tolerance test (ITT), 1 U/kg of recombinant human insulin (Novolin 30R; Novo Nordisk, Bagsvaerd, Denmark) was i.p. injected, and blood glucose was measured at 0, 30, 60, 120 and 150 min after insulin injection.
Serum glucose was analyzed using glucose oxidase method (Applygen, Beijing, China). Serum cholesterol and triglyceride were analyzed using Cholesterol Assay Kit and Triglyceride Assay Kit (Bioassay Systems, USA), respectively. Liver triglyceride was analyzed using Tissue triglyceride assay kit (Applygen, Beijing, China).

[1] = set-up: method as in PMID 10956205, PMID 25388536, PMID 19586769; conditions: in rat; cited from earlier work
mice = system: mice; set-up: method as in PMID 21632533; conditions: cited from earlier work
medaka eleutheroembryo = conditions: cited from earlier work

SMILES: CC(C)c1onc(-c2c(Cl)cccc2Cl)c1COc1ccc(/C=C/c2cccc(C(=O)O)c2)c(Cl)c1 [GW4064]
- transcriptional activity of A291W mutated FXR (FXR A291W mutation): abolished the transcriptional activity
- transcriptional activity of N283L mutated FXR (FXR N283L mutation): retained the ability to be activated
- hepatic lipid / steatosis by H&E staining of liver sections (KK-Ay mice): slightly reduced the hepatic lipid
- lipid accumulation by oil red O staining of liver sections (KK-Ay mice): slightly reduced the lipid accumulation
- liver morphology (colour) (KK-Ay mice): a little fresh red
- t1/2 [1]: < 1 h
- body weight and fat effect (mice): weight gain and fat accumulation
- hepatobiliary toxicity (medaka eleutheroembryo): hepatobiliary injury
